According to patent publication US9555038B2, “Heterocycle-substituted tetracyclic compounds and methods of use thereof for the treatment of viral diseases” (Merck Sharp & Dohme Corp., priority 2013, dated 2017):
Like-named read-outs stand apart in the source and are kept apart here.

How the values were obtained:
[1] = test system: HCV replicon 1A; experiment: Cell-based HCV Replicon Assay A, replicon 1A
Summary of the method: (§1)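 Readout: replicon RNA by real-time RT-PCR, normalised to co-amplified cyclophilin and quantified against replicon total-RNA standard curves. Cells (2000/well) treated 3 days in medium with 5% FBS and 0.5% DMSO, compound in 10 serial dilutions from starting concentrations of 333.3 nM to 1.667 nM.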

[2] = test system: HCV replicon 1AQ30D; experiment: Cell-based HCV Replicon Assay B, replicon 1AQ30D
Method: (§2) In an alternate assay (“Replicon Assay B”), 1000 cells were seeded per well in a 384-well collagen coated black plate from Greiner bio-one (Cat #781946) in 5% FBS. Inhibitors of this invention were added at 24 h post-seeding, and the plates were incubated for 3 days. Cells were subsequently lysed with Qiagen lysis buffer (Cat #1062731) to extract the RNA. HCV replicon RNA level was measured by real-time PCR using the RNA-to-CT kit from Applied Biosystem (Cat #4392656) and genotype-specific primers and probes. The amplicon was located within NS5B. The sequence of the PCR primers are as follows: 5B.2F, ATGGACAGGCGCCCTGA (SEQ. ID NO. 1); 5B.2R, […] (SEQ. ID NO. 2); the probe sequence was FAM-labeled CACGCCATGCGCTGCGG (SEQ. ID NO. 3). To detect genotype 1A the primer 1A F, TGCGGAACCGGTGAGTACA and 1A R, […] were used; the probe sequence was FAM-[…].
(§3) The real-time RT-PCR reactions were run on ABI PRISM 7900HT or Viia7 Sequence Detection System using the following program: 48° C. for 30 minutes, 95° C. for 10 minutes, 40 cycles of 95° C. for 15 sec, 60° C. for 1 minutes. The 50% effective concentration (EC50) was the drug concentration necessary to achieve an increase in the cycle threshold (CT) of 1 over the projected baseline CT.
(§4) Data was obtained for various compounds of the present invention using the methods described in the Example above, and is presented in the table immediately below. Data for replicons 1A, 1AY93H and 2B were obtained using Replicon Assay A and data for replicons 1AQ30D and 1B were obtained using Replicon Assay B.

[3] = test system: HCV replicon 1AY93H; experiment: Cell-based HCV Replicon Assay A, replicon 1AY93H
Summary of the method: as §1

[4] = test system: HCV replicon 2B; experiment: Cell-based HCV Replicon Assay A, replicon 2B
Summary of the method: as §1

[5] = test system: HCV replicon 1B; experiment: Cell-based HCV Replicon Assay B, replicon 1B
Method: as §2, §3, §4

[6] = read-out: 1A Q30D IC50, replicon 1AQ30D
[7] = Hepatitis C virus, read-out: 1A Y93H IC50 (nM), replicon 1AY93H
[8] = Hepatitis C virus, read-out: 1A Q30D IC50 (nM), replicon 1AQ30D
[9] = Hepatitis C virus, read-out: 2B IC50 (nM), replicon 2B
[10] = read-out: 1A Y93H IC50, replicon 1AY93H

| Structure (SMILES) | IC50 [3, 7] [nM] | IC50 ([4]; read-out: 2B IC50, replicon 2B) [nM] | IC50 ([5]; Hepatitis C virus) [pM] | IC50 [4, 9] [nM] | IC50 [3, 10] [nM] | IC50 ([1]; Hepatitis C virus) [pM] | also measured |
| --- | --- | --- | --- | --- | --- | --- | --- |
| COC(=O)N[C@H](C(=O)N1CCC[C@H]1c1ncc(-c2cc(F)c3c(c2)OC(c2nc4c(s2)CCCC4)n2c-3cc3cc(-c4cnc([C@@H]5CCCN5C(=O)[C@@H](NC(=O)OC)C(C)C)[nH]4)ccc32)[nH]1)C(C)C (single isomer, unassigned) [Compound 88] |  |  |  |  |  |  | IC50 [1]: 2.8 pM; IC50 [2, 6]: 0.415 nM |
| COC(=O)N[C@H](C(=O)N1CCC[C@H]1c1ncc(-c2cc(F)c3c(c2)OC(c2cnc(C(C)C)s2)n2c-3cc3cc(-c4cnc([C@@H]5CCCN5C(=O)[C@@H](NC(=O)OC)C(C)C)[nH]4)ccc32)[nH]1)C(C)C (single isomer, unassigned) [Compound 86] | 0.0063 | 0.028 | 2 |  |  |  | IC50 [2, 8]: 0.187 nM |
| COC(=O)N[C@H](C(=O)N1CCC[C@H]1c1ncc(-c2cc(F)c3c(c2)OC(c2cnc(C4(C)CCOCC4)s2)n2c-3cc3cc(-c4cnc([C@@H]5CCCN5C(=O)[C@@H](NC(=O)OC)C(C)C)[nH]4)ccc32)[nH]1)C(C)C (mixture of isomers) [Compound 456] | 0.021 |  | 2.7 | 0.316 |  |  | IC50 [2, 8]: 0.559 nM |
| COC(=O)N[C@H](C(=O)N1CCC[C@H]1c1ncc(-c2cc(F)c3c(c2)OC(c2csc(C4CC4)n2)n2c-3cc3cc(-c4cnc([C@@H]5CCCN5C(=O)[C@@H](NC(=O)OC)C(C)C)[nH]4)ccc32)[nH]1)C(C)C (single isomer, unassigned) [Compound 433] |  | 0.3 |  |  | 0.06 |  | IC50 [2, 8]: 1.6 nM; IC50 [5]: 1 pM |
| COC(=O)N[C@H](C(=O)N1CCC[C@H]1c1ncc(-c2cc(F)c3c(c2)OC(c2cnc(C4CC4)s2)n2c-3c(C)c3cc(-c4cnc([C@@H]5CCCN5C(=O)[C@@H](NC(=O)OC)C(C)C)[nH]4)ccc32)[nH]1)C(C)C (single isomer, unassigned) [Compound 495] |  |  |  |  |  |  | IC50 [1]: 1.6 pM; IC50 ([3]; replicon 1AY93H, read-out: 1A Y93H IC50): 0.27 nM; IC50 ([4]; replicon 2B, read-out: 2B IC50): 0.184 nM; IC50 [5]: 2.5 pM |
| COC(=O)NC(C(=O)N1CCC[C@H]1c1ncc(-c2ccc3c(c2)cc2n3C(c3cnc(C(C)(C)O)s3)Oc3cc(-c4cnc([C@@H]5CCCN5C(=O)[C@@H](NC(=O)OC)C(C)C)[nH]4)cc(F)c3-2)[nH]1)C1C[C@@H](C)O[C@@H](C)C1 (single isomer, unassigned) [Compound 73] |  | 0.146 | 5 |  | 0.586 | 5.7 |  |
| COC(=O)N[C@H](C(=O)N1CCC[C@H]1c1ncc(-c2cc(F)c3c(c2)OC(c2cnc(-c4cccnc4)s2)n2c-3cc3cc(-c4cnc([C@@H]5CCCN5C(=O)[C@@H](NC(=O)OC)C(C)C)[nH]4)ccc32)[nH]1)C(C)C (mixture of isomers) [Compound 422] |  |  | 15 | 35.2 |  | 21 | IC50 [2, 8]: 1.67 nM |
| COC(=O)NC(C(=O)N1CCC[C@H]1c1ncc(-c2ccc3c(c2)cc2n3C(c3cnc(C4(C)CCCC4)s3)Oc3cc(-c4cnc([C@@H]5CCCN5C(=O)[C@@H](NC(=O)OC)C(C)C)[nH]4)cc(F)c3-2)[nH]1)C1C[C@@H](C)O[C@@H](C)C1 (single isomer, unassigned) [Compound 470] |  | 0.106 |  |  | 0.514 |  | IC50 [1]: 2.6 pM; IC50 [5]: 3.5 pM |
| COCc1ncc(C2Oc3cc(-c4cnc([C@@H]5CCCN5C(=O)[C@@H](NC(=O)OC)C(C)C)[nH]4)cc(F)c3-c3cc4cc(-c5cnc([C@@H]6CCCN6C(=O)[C@@H](NC(=O)OC)C(C)C)[nH]5)ccc4n32)s1 (single isomer, unassigned) [Compound 18] |  | 0.016 |  |  | 0.0069 |  | IC50 [2, 8]: 0.072 nM; IC50 [5]: 1 pM |
| COC(=O)NC(C(=O)N1[C@@H]2C[C@@H]2C[C@H]1c1ncc(-c2ccc3c(c2)cc2n3C(c3cnc(C4CC4)s3)Oc3cc(-c4cnc([C@@H]5CCCN5C(=O)[C@@H](NC(=O)OC)C(C)C)[nH]4)cc(C)c3-2)[nH]1)C1C[C@@H](C)O[C@@H](C)C1 (single isomer, unassigned) [Compound 216] |  | 0.086 | 4 |  | 0.292 | 2.4 |  |
| COC(=O)NC(C(=O)N1CCC[C@H]1c1ncc(-c2ccc3c(c2)cc2n3C(c3cnc(C4(C)CC4)s3)Oc3cc(-c4cnc([C@@H]5CCCN5C(=O)[C@@H](NC(=O)OC)C(C)C)[nH]4)cc(F)c3-2)[nH]1)C1C[C@@H](C)O[C@@H](C)C1 (single isomer, unassigned) [Compound 461] |  | 0.132 | 3.8 |  | 0.32 | 2.2 |  |
| COC(=O)N[C@H](C(=O)N1CCC[C@H]1c1ncc(-c2cc(C)c3c(c2)OC(c2cnc(C4CCC4)s2)n2c-3cc3cc(-c4cnc([C@@H]5C[C@H]6C[C@H]6N5C(=O)[C@@H](NC(=O)OC)C(C)C)[nH]4)ccc32)[nH]1)C(C)C (single isomer, unassigned) [Compound 207] | 0.26 |  | 5 | 0.25 |  | 3 |  |
| COC(=O)NC(C(=O)N1C(c2ncc(-c3cc(F)c4c(c3)OC(c3cnc(C5CC5)s3)n3c-4cc4cc(-c5cnc(C6CC7(C)CC7N6C(=O)C(NC(=O)OC)C(C)C)[nH]5)ccc43)[nH]2)CC2(C)CC12)C(C)C (stereo not drawn) [Compound 533] |  |  |  |  |  |  | IC50 [1]: 26.2 pM; IC50 ([2]; replicon 1AQ30D, read-out: 1A Q30D IC50): 2.52 nM; IC50 [5]: 19.6 pM |
| COC(=O)N[C@H](C(=O)N1CCC[C@H]1c1ncc(-c2cc(F)c3c(c2)OC(c2cnc(Oc4ccc(F)cc4)s2)n2c-3cc3cc(-c4cnc([C@@H]5CCCN5C(=O)[C@@H](NC(=O)OC)C(C)C)[nH]4)ccc32)[nH]1)C(C)C (single isomer, unassigned) [Compound 49] |  | 0.002 | 2 |  |  | 1 | IC50 [2, 6]: 0.029 nM |
| COC(=O)N[C@H](C(=O)N1CCC[C@H]1c1ncc(-c2cc(F)c3c(c2)OC(c2csnn2)n2c-3cc3cc(-c4cnc([C@@H]5CCCN5C(=O)[C@@H](NC(=O)OC)C(C)C)[nH]4)ccc32)[nH]1)C(C)C (mixture of isomers) [Compound 501] | 0.857 |  | 3.6 | 1.32 |  | 3.9 |  |
| COC(=O)N[C@H](C(=O)N1CCC[C@H]1c1nc(-c2cc(F)c3c(c2)OC(c2cnc(C4CCCCC4)s2)n2c-3cc3cc(-c4cnc([C@@H]5CCCN5C(=O)[C@@H](NC(=O)OC)C(C)C)[nH]4)ccc32)c[nH]1)C(C)C (stereo partly drawn) [Compound 415] | 2.88 |  | 2 | 1.43 |  | 1.6 |  |
| COC(=O)N[C@H](C(=O)N1CCC[C@H]1c1ncc(-c2cc(F)c3c(c2)OC(c2cnc(-c4ccc(F)cc4F)s2)n2c-3cc3cc(-c4cnc([C@@H]5CCCN5C(=O)[C@@H](NC(=O)OC)C(C)C)[nH]4)ccc32)[nH]1)C(C)C (single isomer, unassigned) [Compound 98] |  | 0.003 | 1.2 |  | 0.01 | 2.7 |  |
| COC(=O)N[C@H](C(=O)N1CCC[C@H]1c1ncc(-c2cc(F)c3c(c2)OC(c2cnc(C4CC4)s2)n2c-3cc3cc(-c4cnc([C@@H]5CC6(C)CC6N5C(=O)[C@@H](NC(=O)OC)C(C)C)[nH]4)ccc32)[nH]1)C(C)C (stereo partly drawn) [Compound 517] | 0.392 |  | 3.3 | 0.874 |  | 1.7 |  |
| COC(=O)NC(C(=O)N1[C@@H]2C[C@@H]2C[C@H]1c1ncc(-c2ccc3c(c2)cc2n3C(c3cnc(C4CC4)s3)Oc3cc(-c4cnc([C@@H]5CCCN5C(=O)[C@@H](NC(=O)OC)C(C)C)[nH]4)cc(F)c3-2)[nH]1)C1CCOC(C)(C)C1 (single isomer, unassigned) [Compound 313] | 0.231 | 0.122 | 45 |  |  | 3.2 |  |
| COC(=O)NC(C(=O)N1[C@@H]2C[C@@H]2C[C@H]1c1ncc(-c2ccc3c(c2)cc2n3C(c3cnc(C4(C)CCCC4)s3)Oc3cc(-c4cnc([C@@H]5CCCN5C(=O)[C@@H](NC(=O)OC)C(C)C)[nH]4)cc(F)c3-2)[nH]1)C1C[C@@H](C)O[C@@H](C)C1 (single isomer, unassigned) [Compound 474] |  | 0.263 |  |  | 0.269 |  | IC50 [1]: 1.5 pM; IC50 [5]: 3.6 pM |
| COC(=O)NC(C(=O)N1CCC[C@H]1c1ncc(-c2ccc3c(c2)cc2n3C(c3cnc(C4CCCC4)s3)Oc3cc(-c4cnc([C@@H]5CCCN5C(=O)[C@@H](NC(=O)OC)C(C)C)[nH]4)cc(F)c3-2)[nH]1)C1CCOC(C)(C)C1 (single isomer, unassigned) [Compound 111] | 0.005 |  | 2 | 0.003 |  | 2.2 |  |
